A word on the IC50: it is the concentration that gives 50% inhibition.

Read-outs that look alike come from different tables or passages of the source. Marks after values point to notes of the source that are not given here.

This is an account of results in paper PMC3640069 (PLoS ONE, 2013).

The test system of series [1] is ACE from rabbit lungs. The series can be described thus: ACE inhibitory activity in vitro (HHL hydrolysis, HPLC of hippuric acid). Format: biochemical. Conditions: 10 µmol/L peptide, crude ACE extract from rabbit lung, 5 mmol/L HHL, 37°C, 10 min pre-incubation + 20 min, RP-HPLC 228 nm, mean ± SD. Here is the method:
ACE extracts were prepared and its activity was determined according to the method of Nakamura et al. and Wu & Ding with some modifications. Briefly, the fresh rabbit lung without connective tissues was cut into pieces and washed with precooled NaCl (0.7%) to get rid of blood. The tissue pieces were homogenized in precooled 5-fold the volume of fresh rabbit lung weight (v/w, mL/g) of 100 mM sodium borate buffer (BBS) (pH 8.3). The mixtures were then filtrated with 3-ply gauze followed by ultracentrifuged for 40 min (40,000 g, at 4°C). The supernatant as crude ACE extracts was retained and stored at 5°C [24].
The ACE activity was assayed using the method described by Wu & Ding. It was based on the hydrolysis of hippuryl-L-histidyl-L-leucine (HHL) by ACE to hippuric acid (HA) and histidyl-leucine (HL) as products. The HA release from HHL was directly related to the ACE activity. One unit (U) of ACE was defined as the amount of enzyme catalyzing the release of 1 µmol/L HA from the substrate HHL per minute at 37°C. Briefly, 30 µL of ACE crude extracts were mixed with 100 µL of BBS (pH 8.3). The mixture was incubated at 37°C for 10 min. Then, 200 µL of 5 mmol/L HHL solution substrate were added and the reaction mixture was incubated at 37°C for 20 min. The reaction was stopped by the addition of 250 µL of 1 mol/L HCl. 10 µL of solution were analyzed by reversed-phase HPLC and detected at the wavelength of λ = 228 nm. The column was eluted with 20% acetonitrile (in water, v/v) containing 0.1% (v/v) TFA on AKATA purifier 10 with a flow rate of 1.0 mL/min. The blank experiment was executed with premixing 250 µL of 1 mol/L HCl and 30 µL of ACE crude extracts to inhibit the activity of ACE.
Evaluation of ACE inhibitory activity was assayed using the same method described in above section with some modifications. Briefly, 2 µL of ACE crude extracts were mixed with 80 µL of 10 µmol/L each selected peptide solution. The mixture was incubated at 37°C for 10 min, after which 200 µL of 5 mmol/L HHL solution substrate were added and the reaction mixture was incubated at 37°C for 20 min. Finally, 250 µL of 1 mol/L HCl were added to stop the reaction and 10 µL of solution were used to analyze HA release from HHL by reversed-phase HPLC with the same condition described above and detected at the wavelength of λ = 228 nm. Controls with equal volume of BBS as sample substitute were included for each measurement, and the blank experiment was executed with premixing 250 µL of 1 mol/L HCl and 2 µL of ACE crude extracts to inhibit the activity of ACE, firstly.
The evaluation of ACE inhibition was based on the measurement of the HA peak areas, and the degree of ACE inhibition (%) was calculated according to Eq.1: [drawing 1] (Eq.1) […]

For series [2], the system named is spontaneously hypertensive rats (SHR/Slac). The experiment in a line: Systolic blood pressure of SHR after single intragastric administration (tail-cuff). Conditions: for dose-dependence of the lowering SBP effect: 0.75 versus […] BW, relative lowering SBP rate. Type of series: in vivo, rat. How it is done: The spontaneously hypertensive, strain SHR/Slac male rats (Production Permit Number: SCXK (Shanghai) 2007-0005; Body weight, average ∼400 g; Age, 20 weeks old), were purchased from Shanghai SLAC Laboratory Animal Co. Ltd. (Shanghai, China). The SHR were housed in cages and maintained under specific pathogen-free conditions on a cycle of 12 h of light and 12 h of darkness at Center of Experimental Animal, School of Pharmacy, Shanghai Jiao Tong University (Use Permit Number: SYXK (Shanghai) 2007-0025). The temperature and humidity in the cages were controlled at 24±1°C and 60±5%, respectively. SHRs were acclimatized for 7 days prior to experimentation. The rats were fed a standard laboratory diet (SLACOM; Shanghai, China), and tap water was freely available. After the hexapeptide water-solution (dose, 1.5 mg/kg body weight) injection with intragastric administration in six SHR, the systolic blood pressure (SBP) of each rat was measured by the tail-cuff method with a programmable electrosphygmomanometer (model SoftronBP-98A; Softron Beijing Incorporated, Beijing, China) at 1 h interval. A heater lamp was on the tail to improve signal quality. To obtain an accurate SBP reading, rats were first habituated to the SBP measurement device. Definitive measurements began when rats remained unperturbed into the chamber throughout the inflation-deflation cycles. The SBP in each SHR with administration of distilled water (2 mL) was used as the control value. The data are expressed as means and standard errors (n = 6).
To evaluate whether the lowering SBP effect was the dose-dependence relative to the test peptides, the SHR were also treated with 0.75 mg/kg BW peptides water-solution as above program. And the relative lowering SBP effect was calculated as the following equation (Eq.2): [drawing 2] (Eq.2) where SBPinitial is the initial SBP values of SHR right before the peptide administration, SBPlowest is the lowest SBP value obtained within 5 h after the administration with the tested peptides.

Series [3] relates to SERCA 2a gene. The series can be described thus: Quantitative real time-PCR of SERCA 2a gene mRNA in SHR heart. Format: in vivo, rat. Conditions: 3 h after feeding the peptide, GAPDH reference, three biological replicates. How it is done: Quantitative real time-PCR (qRT-PCR) analysis was performed using SYBR Premix EX Taq (TaKaRa) on a Rotor-Gene R[…] detection system (Corbett Research) as described by Zhang et al. (2010) with the exception of the annealing temperature at 58 °C when using the primers […]) and […]), [26]. Gene GAPDH was used as reference gene with primer […]) and […]). Three biological replicates were used, and each with three technical repeats.

Series [4] concerns ACE. Conditions: literature value; cited from earlier work. The source says:
In the past decades, researchers have focused on the natural nutraceutical resources and investigated the potential antihypertensive activity in vitro by ACE-inhibitory activity, [5]. Some natural phytochemicals from plants, including rutin, quercetin glycoside, epicatechin-tetramer and cyanidin-3-O-sambubioside have been extensively studied as a substitute for chemo-pharmaceuticals [6]–[8]. Also, some antihypertensive peptides have been identified from hydrolyzed or fermented milk and other dietary sources. Among them, the Isoleucine-Proline-Proline (IPP) and Valine-Proline- ...

The test system of series [5] is SHR. The arrangement: method as in 5 sources, ref 30 = [30]; PMID 7673515; doi:10.3168/jds.S0022-0302(95)76745-5; 30 Nakamura Y , Yamamoto N , Sakai K , Takano T ( 1995 ) Antihypertensive effect of sour milk and peptides isolated from it that are inhibitors to angiotensin I-converting enzyme . J Dairy Sci 78 : 12 ||| ref 31 = [31]; PMID 8880454; doi:10.3168/jds.S0022-0302(96)76487-1; 31 Maeno M , Yamamoto N , Takano T ( 1996 ) Identification of an antihypertensive peptide from casein hydrolysate produced by a proteinase from Lactobacillus helveticus CP790 . J Dairy Sci 79 : 1316 – ||| ref 32 = [32]; PMID 9891260; doi:10.3168/jds.S0022-0302(98)75878-3; 32 Abubakar A , Saito T , Kittazawa H , Kawai Y , Itoh T ( 1998 ) Structural analysis of new antihypertensive peptides derived from cheese whey protein by proteinase K digestion . J Dairy Sci 81 : 313 ||| ref 33 = [33]; PMID 10794501; doi:10.1016/s0024-3205(00)00471-9; 33 Nurminen ML , Sipola M , Kaarto H , Pihlanto-Leppälä A , Piilola K , et al ( 2000 ) α-Lactorphin lowers blood pressure measured by radiotelemetry in normotensive and spontaneously hypertensive rats ||| ref 34 = [34]; 34 Miguel M , Contreras MM , Recio I , Aleixandre A ( 2009 ) ACE-inhibitory and antihypertensive properties of a bovine casein hydrolysate . Food Chemistry 112 : 211 – 214 . Conditions: cited from earlier work.

The conditions of series [6]: normoglycemic and normotensive animal model; cited from earlier work. From the text: It is necessary to evaluate the ACE-inhibitor effect on the blood glucose level of hyperpietics simultaneously since blood sugar was positively correlated with blood pressure (systolic and diastolic), and this correlation was independent of common associations with age, body mass index (BMI) and heart rate.

As for Isoleucine-Proline-Proline [IPP], the “ACE inhibition rate (%)” value in series [1] is reported as 56.97±2.40^a %. In addition, the “dose-dependence of the lowering SBP effect” value in series [2] is “dose-dependent effect”. For the same compound, the “transcriptional level of SERCA 2a gene” value in series [3] is reported as 3.80 times of the control. Besides, the IC50 in series [4] was 5 µM. The “decrease in SBP” value in series [5] (SHR, 0.3 mg/kg BW) is recorded as 21.7±4.1 mmHg.

Regarding “KVLPVPQ [heptapeptide KVLPVPQ (β-casein 169–175aa)]”, the “maximal decrease in SBP” value in series [5] (SHR, 2 mg/kg BW) is 31.5±5.6 mmHg.

Consider `C[C@H](CS)C(=O)N1CCC[C@H]1C(=O)O` [captopril], for which the “decrease in SBP” value in series [5] (male SHR, 50 mg/kg, 4–6 h after administration) is reported as “about 53±4 mmHg”. The “effect on postprandial blood glucose levels” value in series [6] was “no significant effect”.

As for “Valine-Proline-Proline-Isoleucine-Proline-Proline [VPPIPP]”, the “ACE inhibition rate (%)” value in series [1] is reported as 34.71±4.38^b %. Moreover, the “relative lowering SBP rate, comparison between peptides” value in series [2] (0.75 mg/kg BW, intragastric) is “did not show significantly different from IPPVPP and IPP”. Also, in series [2], the “dose-dependence of the lowering SBP effect” value is reported as “dose-dependent effect”. The “transcriptional level of SERCA 2a gene” value in series [3] is 3.98 times of the control.

Turning to “YGLF [whey protein derived tetrapeptide]”, the “reduction of SBP” value in series [5] (SHR, subcutaneous, 0.1 mg/kg BW) is reported as 23±4 mmHg.

On to “Isoleucine-Proline-Proline-Valine- Proline-Proline [IPPVPP]”, for which the “ACE inhibition rate (%)” value in series [1] is 13.17±0.25^c %. The “dose-dependence of the lowering SBP effect” value in series [2] is listed as “did not”. In addition, the “transcriptional level of SERCA 2a gene” value in series [3] is listed as 2.70 times of the control.

On to Valine-Proline-Proline [VPP], for which, in series [1], the “ACE inhibition rate (%)” value is reported as 37.62±6.68^b %. Besides, the IC50 in series [4] is 9 µM.
